Reference: patent US20240150423A1, “GLP-1 ANALOGUE-MODIFIED DIMERS WITH DIFFERENT CONFIGURATIONS, PREPARATION METHOD THEREOF, AND APPLICATION THEREOF IN TREATMENT OF TYPE II DIABETES” (Nanjing Finepeptide Biopharmaceutical Co.,Ltd, priority 2019, published 2024)
Non-standard residues stand in square brackets, D forms with d. No end group written: not given here. βAib = beta-Aib residue; βAla = NCCC(=O)O

What follows are substances tested on Normal Kunming (KM) mice (assay: multiple OGTT (mOGTT): hypoglycemic duration after a single administration). Details: monomeric peptides, single injection at the same dose (1.126 nmol), subcutaneous.
Assay type: in vivo
Summary of the method: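 Single administration in normal Kunming mice, followed by oral glucose loading with tail-vein glucose sampled at 0–120 min (0, 10, 20, 40, 60, 120 min). Effective duration ended once mean glucose exceeded the NaCl control group on two occasions.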

| Substance | Hypoglycemic [days] | Hypoglycemic (day) |
| --- | --- | --- |
| His-aAib-Glu-Gly-Thr-Phe-Thr-Cys-Asp-Val-Ser-Ser-Tyr-Leu-Glu-Gly-Gln-Ala-Ala-Lys[N-ϵ-(N-α-Palmitoyl-γ-glutamyl)]-Glu-Phe-Ile-Ala-Trp-Leu-Val-Arg-Gly-Arg-Gly-NH2 (HXEGTFTCDVSSYLEGQAAXEFIAWLVRGRG; Aib; palmitoyl-gamma-Glu on Lys; C-terminal amide; Sequence is synthesized; (2)..(2) Xaa is aAib; (20)..(20) Xaa is 26Lys[N-e-(N-a-palmitoyl-L-g-glutamyl)]; (31)..(31) N-terminal) [G8 series 61] | 4 | – |
| His-Ala-Glu-Gly-Thr-Phe-Thr-Ser-Asp-Val-Ser-Ser-Tyr-Leu-Glu-Gly-Gln-Ala-Ala-Lys[N-ϵ-(N-α-Palmitoyl-γ-glutamyl)]-Glu-Phe-Ile-Ala-Trp-Leu-Val-Arg-Gly-Arg-Gly-Cys-OH (HAEGTFTSDVSSYLEGQAAXEFIAWLVRGRGC; palmitoyl-γ-glutamyl on Lys; C-terminal acid; Sequence is synthesized; (20)..(20) Xaa is 26Lys[N-e-(N-a-Palmitoyl-g-glutamyl)]; (32)..(32) C-terminal) [G1] | – | No hypoglycemic |
| His-Ala-Glu-Gly-Thr-Phe-Thr-Ser-Asp-Val-Ser-Cys-Tyr-Leu-Glu-Gly-Gln-Ala-Ala-Lys[N-ϵ-(N-α-oleoyl-L-γ-glutamyl)]-Glu-Phe-Ile-Ala-Trp-Leu-Val-Arg-Gly-Arg-Gly-OH (HAEGTFTSDVSCYLEGQAAXEFIAWLVRGRG; oleoyl-γ-glutamyl on Lys; C-terminal acid; Sequence is synthesized; (20)..(20) Xaa is 26Lys[N-e-(N-a-oleoyl-L-g-glutamyl)]; (31)..(31) C-terminal) [G3 series 21] | 4 | – |
| His-aAib-Glu-Gly-Thr-Phe-Thr-Ser-Asp-Val-Ser-Cys-Tyr-Leu-Glu-Gly-Gln-Ala-Ala-Lys[N-ϵ-(N-α-Palmitoyl-L-γ-glutamyl)]-Glu-Phe-Ile-Ala-Trp-Leu-Val-Arg-Gly-Arg-Gly-OH (HXEGTFTSDVSCYLEGQAAXEFIAWLVRGRG; Aib; palmitoyl-gamma-Glu on Lys; C-terminal acid; Sequence is synthesized; (2)..(2) Xaa is aAib; (20)..(20) Xaa 26Lys[N-e-(N-a-palmitoyl-L-g-glutamyl)]; (31)..(31) C-terminal) [G6 series 45] | 4 | – |
| His-Ala-Glu-Gly-Thr-Phe-Thr-Ser-Asp-Val-Ser-Cys-Tyr-Leu-Glu-Gly-Gln-Ala-Ala-Lys[N-ϵ-(N-α-Palmitoyl)]-Glu-Phe-Ile-Ala-Trp-Leu-Val-Arg-Gly-Arg-Gly-OH (HAEGTFTSDVSCYLEGQAAXEFIAWLVRGRG; not fully specified; palmitoyl on Lys side chain; C-terminal acid; Sequence is synthesized; (20)..(20) Xaa is 26Lys[N-e-(N-a-palmitoyl-L-g-glutamyl)]; (31)..(31) C-terminal) [G4 series 34] | 4 | – |
| His-Ala-Glu-Gly-Thr-Phe-Thr-Ser-Asp-Val-Ser-Cys-Tyr-Leu-Glu-Gly-Gln-Ala-Ala-Lys[N-ϵ-(N-α-oleoyl)]-Glu-Phe-Ile-Ala-Trp-Leu-Val-Arg-Gly-Arg-Gly-OH (HAEGTFTSDVSCYLEGQAAXEFIAWLVRGRG; not fully specified; oleoyl on Lys; C-terminal acid; Sequence is synthesized; (20)..(20) Xaa is 26Lys[N-e-(N-a-oleoyl-L-g-glutamyl)]; (31)..(31) C-terminal) [G4 series 32] | 5 | – |
| His-aAib-Glu-Gly-Thr-Phe-Thr-Cys-Asp-Val-Ser-Ser-Tyr-Leu-Glu-Gly-Gln-Ala-Ala-Lys[N-ϵ-(N-α-oleoyl-L-γ-glutamyl)]-Glu-Phe-Ile-Ala-Trp-Leu-Val-Arg-Gly-Arg-Gly-NH2 (HXEGTFTCDVSSYLEGQAAXEFIAWLVRGRG; Aib; oleoyl-gamma-Glu on Lys; C-terminal amide; Sequence is synthesized; (2)..(2) Xaa is aAib; (20)..(20) Xaa is 26Lys[N-e-(N-a-oleoyl-L-g-glutamyl)]; (31)..(31) N-terminal) [G8 series 62] | 5 | – |
| His-βAib-Glu-Gly-Thr-Phe-Thr-Ser-Asp-Val-Cys-Ser-Tyr-Leu-Glu-Gly-Gln-Ala-Ala-Lys-Glu-Phe-Ile-Ala-Trp-Leu-Val-Arg-βAib-Arg-NH2 (H[βAib]EGTFTSDVCSYLEGQAAKEFIAWLVR[βAib]R-NH2; also: disulfide-linked homodimer via Cys) [G2 series 16] | 3 | – |
| His-aAib-Glu-Gly-Thr-Phe-Thr-Cys-Asp-Val-Ser-Ser-Tyr-Leu-Glu-Gly-Gln-Ala-Ala-Lys[N-ϵ-(N-α-Palmitoyl-γ-glutamyl)]-Glu-Phe-Ile-Ala-Trp-Leu-Val-Arg-Gly-Arg-Gly-OH (HXEGTFTCDVSSYLEGQAAXEFIAWLVRGRG; Aib; palmitoyl-gamma-Glu on Lys; C-terminal acid; Sequence is synthesized; (2)..(2) Xaa is aAib; (20)..(20) Xaa is 26Lys[N-e-(N-a-palmitoyl-L-g-glutamyl)]; (31)..(31) C-terminal) [G8 series 60] | 2 | – |
| His-aAib-Glu-Gly-Thr-Phe-Thr-Ser-Asp-Val-Cys-Ser-Tyr-Leu-Glu-Gly-Gln-Ala-Ala-Lys[N-ϵ-(N-α-Palmitoyl-γ-glutamyl)]-Glu-Phe-Ile-Ala-Trp-Leu-Val-Arg-Gly-Arg-Gly-NH2 (HXEGTFTSDVCSYLEGQAAXEFIAWLVRGRG; αAib; palmitoyl-γ-glutamyl on Lys; C-terminal amide; Sequence is synthesized; (2)..(2) Xaa is aAib; (20)..(20) Xaa is 26Lys[N-e-(N-a-Palmitoyl-g-glutamyl)]; (31)..(31) N-terminal) [G2 series 12] | 6 | – |
| His-βAla-Glu-Gly-Thr-Phe-Thr-Ser-Asp-Val-Cys-Ser-Tyr-Leu-Glu-Gly-Gln-Ala-Ala-Lys-Glu-Phe-Ile-Ala-Trp-Leu-Val-Arg-βAla-Arg-NH2 (H[βAla]EGTFTSDVCSYLEGQAAKEFIAWLVR[βAla]R-NH2; not fully specified; printed as His-βAla-Glu-Gly-Thr-Phe-Thr-Ser-Asp-Val-Cys-Ser-Tyr-Leu-Glu-Gly-Gln-Ala-Ala-Lys-Glu-Phe-Ile-Ala-Trp-Leu-Val-Arg-βAla-Arg-NH2) [G2 series 19] | 3 | – |
| His-βAib-Glu-Gly-Thr-Phe-Thr-Cys-Asp-Val-Ser-Ser-Tyr-Leu-Glu-Gly-Gln-Ala-Ala-Lys-Glu-Phe-Ile-Ala-Trp-Leu-Val-Arg-βAib-Arg-NH2 (H[βAib]EGTFTCDVSSYLEGQAAKEFIAWLVR[βAib]R-NH2; also: disulfide-linked homodimer via Cys) [G8 series 67] | 2 | – |
| His-βAib-Glu-Gly-Thr-Phe-Thr-Ser-Asp-Val-Ser-Cys-Tyr-Leu-Glu-Gly-Gln-Ala-Ala-Lys-Glu-Phe-Ile-Ala-Trp-Leu-Val-Arg-βAib-Arg-NH2 (H[βAib]EGTFTSDVSCYLEGQAAKEFIAWLVR[βAib]R-NH2; also: disulfide-linked homodimer via Cys12) [G7 series 54] | 2 | – |

Same assay, conditions: single injection at the same dose (1.126 nmol), subcutaneous

| Substance | Hypoglycemic duration [days] |
| --- | --- |
| 2G7 series 55: disulfide-linked homodimer of monomer SEQ ID NO: 55 (H[βAla]EGTFTSDVSCYLEGQAAKEFIAWLVR[βAla]R-NH2; also: disulfide-linked homodimer, disulfide at 12, other end not in the chain) | 4 |
| 2G4 series 27: disulfide-linked homodimer of monomer SEQ ID NO: 27 (HAEGTFTSDVCSYLEGQAAXEFIAWLVRGRG; not fully specified; disulfide-linked homodimer; Sequence is synthesized; (20)..(20) Xaa is 26Lys[N-e-(N-a-oleoyl-L-g-glutamyl)]; (31)..(31) N-terminal) | 15 |
| 2G8 series 57: disulfide-linked homodimer of monomer SEQ ID NO: 57 (HAEGTFTCDVSSYLEGQAAXEFIAWLVRGRG; disulfide-linked homodimer; Sequence is synthesized; (20)..(20) Xaa is 26Lys[N-e-(N-a-palmitoyl-L-g-glutamyl)]; (31)..(31) N-terminal) | 5 |
| 2G4 series 30: disulfide-linked homodimer of monomer SEQ ID NO: 30 (HXEGTFTSDVCSYLEGQAAXEFIAWLVRGRG; not fully specified; disulfide-linked homodimer; Sequence is synthesized; (2)..(2) Xaa is bAib; (20)..(20) Xaa is 26Lys[N-e-(N-a-oleoyl-L-g-glutamyl)]; (31)..(31) N-terminal) | 16 |
| 2G4 series 39: disulfide-linked homodimer of monomer SEQ ID NO: 39 (HXEGTFTSDVSCYLEGQAAXEFIAWLVRGRG; disulfide-linked homodimer; Sequence is synthesized; (2)..(2) Xaa is bAla; (20)..(20) Xaa is 26Lys[N-e-(N-a-oleoyl-L-g-glutamyl)]; (31)..(31) N-terminal) | 16 |
| 2G4 series 31: disulfide-linked homodimer of monomer SEQ ID NO: 31 (HXEGTFTSDVCSYLEGQAAXEFIAWLVRGRG; not fully specified; disulfide-linked homodimer; Sequence is synthesized; (2)..(2) Xaa is bAla; (20)..(20) Xaa is 26Lys[N-e-(N-a-oleoyl-L-g-glutamyl)]; (31)..(31) N-terminal) | 15 |
